Assay results reported in patent US20090004185A1, “AMINO-SUBSTITUTED QUINAZOLINE DERIVATIVES AS INHIBITORS OF BETA-CATENIN/TCF-4 PATHWAY AND CANCER TREATMENT AGENTS” (WYETH, priority 2007, published 2009).

Legend:
β-catenin/Tcf-4 = test: cells; format: cell-based; details: Homo sapiens, 24 hours of incubation with compound, ratio Firefly/Renilla luciferase
Outline: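 SW480-derived lines with integrated reporters (Tcf-4-driven firefly luciferase; SV40 firefly as specificity control; SV40 Renilla for cell number/toxicity), treated 24 hours with titrated compounds, final 0.316% DMSO. Dual-luciferase read-out; firefly/Renilla ratio as % of control, duplicate plates, IC50 (nM) from curve fit.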

SV40-Luc = SV40-Luc control luciferase reporter assay, SV 5A8 cell line (SV40-Luc and SV40-R-Luc), control for non-specific inhibitors; format: cell-based, human; details: Homo sapiens, SV5A8, 24 h, SV 5A8 cells derived from SW480; 24 hours of incubation with compound; ratio Firefly/Renilla luciferase
Outline: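 SW480-derived lines with integrated reporters: SV 5A8 (SV40 firefly plus SV40 Renilla), Tcf 33.13 and Tcf 22C11 (Tcf-4 firefly plus SV40 Renilla). Cells seeded 1×10^4/well, compounds added 20-24 h later at titrated concentrations (final DMSO 0.316%) for 24 h. Firefly/Renilla ratio, as % of control, gave IC50 (nM).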

[1] = SW480, 24 h, Tcf 33.13 cells derived from SW480
[2] = Tcf22C11, 24 h, Tcf 22C11 cells derived from SW480

CCN(C)c1nc(NCc2ccc(NC(=O)c3ccc(F)cc3)cc2)c2ccc(C)cc2n1 [Example 210, N-{4-[({2-[ethyl(methyl)amino]-7-methylquinazolin-4-yl}amino)methyl]phenyl}-4-fluorobenzamide]
IC50 (β-catenin/Tcf-4; [1]): 825 nM
IC50 (β-catenin/Tcf-4; [2]): 1380 nM
IC50 (SV40-Luc): > 5640 nM

Cc1ccc2nc(N3CCN[C@@H](C)C3)nc(NCc3ccc(NC(=O)c4ccc(F)cc4)cc3)c2c1 [Example 51, 4-fluoro-N-{4-[({6-methyl-2-[(3S)-3-methylpiperazin-1-yl]quinazolin-4-yl}amino)methyl]phenyl}benzamide]
IC50 (β-catenin/Tcf-4; [1]): 987 nM
IC50 (β-catenin/Tcf-4; [2]): 1070 nM
IC50 (SV40-Luc): > 5160 nM

Cc1ccc2nc(N3CCN(c4ncccn4)CC3)nc(NCc3ccc(NC(=O)C4CCN(Cc5ccccc5)CC4)cc3)c2c1 [Example 82, 1-benzyl-N-[4-({[6-methyl-2-(4-pyrimidin-2-ylpiperazin-1-yl)quinazolin-4-yl]amino}methyl)phenyl]piperidine-4-carboxamide]
IC50 (β-catenin/Tcf-4; [1]): 891 nM
IC50 (β-catenin/Tcf-4; [2]): 872 nM
IC50 (SV40-Luc): > 7960 nM

Cc1ccc2c(NCc3ccc(NC(=O)c4ccc(F)cc4)cc3)nc(N3CCC[C@H]3CN3CCCC3)nc2c1 [Example 228, 4-fluoro-N-{4-[({7-methyl-2-[(2S)-2-(pyrrolidin-1-ylmethyl)pyrrolidin-1-yl]quinazolin-4-yl}amino)methyl]phenyl}benzamide]
IC50 (β-catenin/Tcf-4; [1]): 2210 nM
IC50 (β-catenin/Tcf-4; [2]): 1900 nM
IC50 (SV40-Luc): > 4640 nM

CCN(CC)c1nc(NCc2ccc(NC(=O)c3ccc(F)cc3)cc2)c2cc(C)ccc2n1 [Example 43, N-[4-((2-(diethylamino)-6-methylquinazolin-4-ylamino)methyl)phenyl)-4-fluorobenzamide]
IC50 (β-catenin/Tcf-4; [1]): 492 nM
IC50 (β-catenin/Tcf-4; [2]): 738 nM
IC50 (SV40-Luc): > 5460 nM

CNc1nc(NCc2ccc(NC(=O)c3ccc(Cl)nc3)cc2)c2cc(OC)c(OC)cc2n1 [Example 9, 6-chloro-N-[4-({[6,7-dimethoxy-2-(methylamino)quinazolin-4-yl]amino}methyl)phenyl]nicotinamide]
IC50 (β-catenin/Tcf-4; [1]): 1070 nM
IC50 (β-catenin/Tcf-4; [2]): 888 nM
IC50 (SV40-Luc): 1520 nM

CN(C)c1nc(NCc2ccc(NC(=O)C3CCN(Cc4ccccc4)CC3)cc2)c2ccc(/C=C/C(C)(C)C)cc2n1 [Example 152, 1-benzyl-N-{4-[({2-(dimethylamino)-7-[(1E)-3,3-dimethylbut-1-en-1-yl]quinazolin-4-yl}amino)methyl]phenyl}piperidine-4-carboxamide]
IC50 (β-catenin/Tcf-4; [1]): > 962 nM
IC50 (β-catenin/Tcf-4; [2]): 1050 nM
IC50 (SV40-Luc): > 3850 nM

Cc1ccc2nc(N(C)C)nc(NCc3ccc(NC(=O)c4ccc(F)c(F)c4)cc3)c2c1 [Example 36, N-[4-({[2-(dimethylamino)-6-methylquinazolin-4-yl]amino}methyl)phenyl]-3,4-difluorobenzamide]
IC50 (β-catenin/Tcf-4; [1]): 866 nM
IC50 (β-catenin/Tcf-4; [2]): 1170 nM
IC50 (SV40-Luc): > 5590 nM

CN1CCN(c2nc(NCc3ccc(NC(=O)c4ccc(F)cc4)cc3)c3ccccc3n2)CC1 [Example 116, 4-fluoro-N-[4-({[2-(4-methylpiperazin-1-yl)quinazolin-4-yl]amino}methyl)phenyl]benzamide]
IC50 (β-catenin/Tcf-4; [1]): 3040 nM
IC50 (β-catenin/Tcf-4; [2]): 3440 nM
IC50 (SV40-Luc): > 21300 nM

CCOC(=O)N1CCN(c2nc(NCc3ccc(NC(=O)c4ccc(F)cc4)cc3)c3ccc(C)cc3n2)CC1 [Example 218, ethyl 4-[4-({4-[(4-fluorobenzoyl)amino]benzyl}amino)-7-methylquinazolin-2-yl]piperazine-1-carboxylate]
IC50 (β-catenin/Tcf-4; [1]): 939 nM
IC50 (β-catenin/Tcf-4; [2]): 1280 nM
IC50 (SV40-Luc): > 15200 nM

Cc1ccc2nc(N3CCN(c4ccccn4)CC3)nc(NCc3ccc(NC(=O)C4CCN(Cc5ccccc5)CC4)cc3)c2c1 [Example 79, 1-benzyl-N-[4-({[6-methyl-2-(4-pyridin-2-ylpiperazin-1-yl)quinazolin-4-yl]amino}methyl)phenyl]piperidine-4-carboxamide]
IC50 (β-catenin/Tcf-4; [1]): 1680 nM
IC50 (β-catenin/Tcf-4; [2]): 2350 nM
IC50 (SV40-Luc): > 16000 nM

CNc1nc(NCc2ccc(NC(=O)c3ccc(F)cc3Cl)cc2)c2cc(C)ccc2n1 [Example 28, 2-chloro-4-fluoro-N-[4-({[6-methyl-2-(methylamino)quinazolin-4-yl]amino}methyl)phenyl]benzamide]
IC50 (β-catenin/Tcf-4; [1]): 904 nM
IC50 (β-catenin/Tcf-4; [2]): > 1390 nM
IC50 (SV40-Luc): > 1390 nM

O=C(O)CNc1nc(NCc2ccc(NC(=O)c3ccc(F)cc3)cc2)c2ccccc2n1 [Example 127, N-[4-({4-[(4-fluorobenzoyl)amino]benzyl}amino)quinazolin-2-yl]glycine]
IC50 (β-catenin/Tcf-4; [1]): > 22400 nM
IC50 (β-catenin/Tcf-4; [2]): > 22400 nM
IC50 (SV40-Luc): > 22400 nM

Cc1ccc2c(NCc3ccc(NC(=O)C4CCN(Cc5ccc(Cl)cc5)CC4)cc3)nc(N(C)C)nc2c1 [Example 253, 1-(4-chlorobenzyl)-N-[4-({[2-(dimethylamino)-7-methylquinazolin-4-yl]amino}methyl)phenyl]piperidine-4-carboxamide]
IC50 (β-catenin/Tcf-4; [1]): 255 nM
IC50 (β-catenin/Tcf-4; [2]): 390 nM
IC50 (SV40-Luc): > 4060 nM

Cc1ccc2nc(N3CCCCC3)nc(NCc3ccc(NC(=O)c4ccc(F)cc4)cc3)c2c1 [Example 42, 4-fluoro-N-(4-{[(6-methyl-2-piperidin-1-ylquinazolin-4-yl)amino]methyl}phenyl)benzamide]
IC50 (β-catenin/Tcf-4; [1]): 2940 nM
IC50 (β-catenin/Tcf-4; [2]): 9250 nM
IC50 (SV40-Luc): > 10600 nM

CN(C)c1nc(NCc2ccc(NC(=O)c3ccc(F)cc3)cc2)c2ccc(CN)cc2n1 [Example 90, N-[4-({[7-(aminomethyl)-2-(dimethylamino)quinazolin-4-yl]amino}methyl)phenyl]-4-fluorobenzamide]
IC50 (β-catenin/Tcf-4; [1]): 1300 nM
IC50 (β-catenin/Tcf-4; [2]): 2860 nM
IC50 (SV40-Luc): > 4830 nM

Cc1ccc2c(NCc3ccc(NC(=O)Nc4ccc(F)cc4)cc3)nc(N(C)C)nc2c1 [Example 180, N-[4-({[2-(dimethylamino)-7-methylquinazolin-4-yl]amino}methyl)phenyl]-N′-(4-fluorophenyl)urea]
IC50 (β-catenin/Tcf-4; [1]): 2020 nM
IC50 (β-catenin/Tcf-4; [2]): 1460 nM
IC50 (SV40-Luc): > 5610 nM

CN(C)c1nc(NCc2ccc(NC(=O)c3ccc(F)cc3)cc2)c2ccc(-c3ccccc3C=O)cc2n1 [Example 98, N-[4-({[2-(dimethylamino)-7-(2-formylphenyl)quinazolin-4-yl]amino}methyl)phenyl]-4-fluorobenzamide]
IC50 (β-catenin/Tcf-4; [1]): 2960 nM
IC50 (β-catenin/Tcf-4; [2]): > 2410 nM
IC50 (SV40-Luc): > 19200 nM

Cc1ccc2c(NCc3ccc(NC(=O)c4ccc(F)cc4)cc3)nc(N(C)Cc3ccccc3)nc2c1 [Example 203, N-{4-[({2-[benzyl(methyl)amino]-7-methylquinazolin-4-yl}amino)methyl]phenyl}-4-fluorobenzamide]
IC50 (β-catenin/Tcf-4; [1]): 579 nM
IC50 (β-catenin/Tcf-4; [2]): 590 nM
IC50 (SV40-Luc): > 9890 nM

CNc1nc(NCc2ccc(NC(=O)c3ccc(Cl)cc3)cc2)c2cc(-c3ccco3)cc(C)c2n1 [Example 67, 4-chloro-N-[4-({[6-(2-furyl)-8-methyl-2-(methylamino)quinazolin-4-yl]amino}methyl)phenyl]benzamide]
IC50 (β-catenin/Tcf-4; [1]): 1450 nM
IC50 (β-catenin/Tcf-4; [2]): 1210 nM
IC50 (SV40-Luc): > 10000 nM

Cc1ccc2c(NCc3ccc(NC(=O)c4ccc(F)cc4)cc3)nc(N3CCN(Cc4ccc5c(c4)OCO5)CC3)nc2c1 [Example 215, N-{4-[({2-[4-(1,3-benzodioxol-5-ylmethyl)piperazin-1-yl]-7-methylquinazolin-4-yl}amino)methyl]phenyl}-4-fluorobenzamide]
IC50 (β-catenin/Tcf-4; [1]): 3190 nM
IC50 (β-catenin/Tcf-4; [2]): 1960 nM
IC50 (SV40-Luc): > 12000 nM

Cc1cccc2c(N[C@@H](C)c3ccc(NC(=O)c4ccc(Cl)nc4)cc3)nc(N(C)C)nc12 [Example 273, (S)-6-chloro-N-(4-(1-(2-(dimethylamino)-8-methylquinazolin-4-ylamino)ethyl)phenyl)nicotinamide]
IC50 (β-catenin/Tcf-4; [1]): 3950 nM
IC50 (β-catenin/Tcf-4; [2]): > 2340 nM
IC50 (SV40-Luc): > 9360 nM

CNc1nc(N[C@@H](C)c2ccc(NC(=O)c3ccc(F)cc3)cc2)c2cccc(C)c2n1 [Example 275, (S)-4-fluoro-N-(4-(1-(8-methyl-2-(methylamino)quinazolin-4-ylamino)ethyl)phenyl)benzamide]
IC50 (β-catenin/Tcf-4; [1]): 549 nM
IC50 (β-catenin/Tcf-4; [2]): 522 nM
IC50 (SV40-Luc): > 1240 nM

Cc1ccc2nc(N3CCC(N4CCCC4)CC3)nc(NCc3ccc(NC(=O)C4CCN(Cc5ccccc5)CC4)cc3)c2c1 [Example 83, 1-benzyl-N-[4-({[6-methyl-2-(4-pyrrolidin-1-ylpiperidin-1-yl)quinazolin-4-yl]amino}methyl)phenyl]piperidine-4-carboxamide]
IC50 (β-catenin/Tcf-4; [1]): 425 nM
IC50 (β-catenin/Tcf-4; [2]): 511 nM
IC50 (SV40-Luc): > 4050 nM

CNc1nc(NCc2ccc(NC(=O)c3ccc(F)c(C)c3)cc2)c2ccccc2n1 [Example 17, 4-fluoro-3-methyl-N-[4-({[2-(methylamino)quinazolin-4-yl]amino}methyl)phenyl]benzamide]
IC50 (β-catenin/Tcf-4; [1]): > 6020 nM
IC50 (β-catenin/Tcf-4; [2]): 7510 nM
IC50 (SV40-Luc): > 12000 nM

Cc1ccc2c(NCc3ccc(NC(=O)C4CCN(Cc5ccccc5)CC4)cc3)nc(N3CCNC(CCO)C3)nc2c1 (stereo not drawn) [Example 138, 1-benzyl-N-{4-[({2-[3-(2-hydroxyethyl)piperazin-1-yl]-7-methylquinazolin-4-yl}amino)methyl]phenyl}piperidine-4-carboxamide]
IC50 (β-catenin/Tcf-4; [1]): 2120 nM
IC50 (β-catenin/Tcf-4; [2]): 2280 nM
IC50 (SV40-Luc): > 8420 nM

Cc1c(F)ccc2c(NCc3ccc(NC(=O)c4ccc(Cl)nc4)cc3)nc(N(C)C)nc12 [Example 64, 6-chloro-N-[4-({[2-(dimethylamino)-7-fluoro-8-methylquinazolin-4-yl]amino}methyl)phenyl]nicotinamide]
IC50 (β-catenin/Tcf-4; [1]): 8960 nM
IC50 (β-catenin/Tcf-4; [2]): 11100 nM
IC50 (SV40-Luc): > 10800 nM
